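Briefly, cells in 96-well plates were exposed to five compound concentrations for 48 h, and endpoints were estimated by linear interpolation. GI50 is the concentration that inhibits growth by half.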 Calls of active or inactive are those of the source. Cut-off read from the data, not from the text of the source: active = GI50 up to about 1.1 µM and inactive = higher.
Columns and labels:
Experiment in all cases: NCI anticancer screen, dose series, 48 h
LOX IMVI = test system: LOX IMVI
786-0 = test system: 786-0
SK-MEL-28 = test system: SK-MEL-28
A549 = test system: A549
K562 = test system: K562
U-251 = test system: U-251
MOLT-4 = test system: MOLT-4
SNB-75 = test system: SNB-75
UACC-257 = test system: UACC-257
MCF7 = test system: MCF7
HL-60 = test system: HL-60
IGROV-1 = test system: IGROV-1
SF-295 = test system: SF-295
ACHN = test system: ACHN
Malme-3M = test system: Malme-3M
COLO 205 = test system: COLO 205
TK-10 = test system: TK-10
OVCAR-5 = test system: OVCAR-5
OVCAR-4 = test system: OVCAR-4
KM12 = test system: KM12

Structure (SMILES) | GI50 (LOX IMVI) | GI50 (786-0) | GI50 (SK-MEL-28) | GI50 (A549) | GI50 (K562) | GI50 (U-251) | GI50 (MOLT-4) | GI50 (SNB-75) | GI50 (UACC-257) | GI50 (MCF7) | GI50 (HL-60) | GI50 (IGROV-1) | GI50 (SF-295) | GI50 (ACHN) | GI50 (Malme-3M) | GI50 (COLO 205) | GI50 (TK-10) | GI50 (OVCAR-5) | GI50 (OVCAR-4) | GI50 (KM12)
C(=N/Nc1ccccn1)/c1cccnc1 | > 100 µM (inactive) | > 100 µM (inactive) | 87.7 µM (inactive) | > 100 µM (inactive) | 31 µM (inactive) | > 100 µM (inactive) | 76.2 µM (inactive) | 58.6 µM (inactive) | 89.3 µM (inactive) | 43.9 µM (inactive) | > 100 µM (inactive) | > 100 µM (inactive) | > 100 µM (inactive) | > 100 µM (inactive) | 66.4 µM (inactive) | > 100 µM (inactive) | > 100 µM (inactive) | > 100 µM (inactive) | 98.9 µM (inactive) | 68.7 µM (inactive)
Cn1ncc2c(NCc3ccccc3)ncnc21 | > 100 µM (inactive) | > 100 µM (inactive) | > 100 µM (inactive) | > 100 µM (inactive) | > 100 µM (inactive) | > 100 µM (inactive) | > 100 µM (inactive) | 50.6 µM (inactive) | > 100 µM (inactive) | > 100 µM (inactive) | > 100 µM (inactive) | > 100 µM (inactive) | > 100 µM (inactive) | > 100 µM (inactive) | > 100 µM (inactive) | > 100 µM (inactive) | > 100 µM (inactive) | > 100 µM (inactive) | > 100 µM (inactive) | > 100 µM (inactive)
COc1ccc(-n2c(=O)n(-c3ccccc3)c(=O)n2-c2ccc(OC)cc2)cc1 | > 100 µM (inactive) | > 100 µM (inactive) | > 100 µM (inactive) | > 100 µM (inactive) | 80.4 µM (inactive) | > 100 µM (inactive) | > 100 µM (inactive) | > 100 µM (inactive) | > 100 µM (inactive) | > 100 µM (inactive) | > 100 µM (inactive) | > 100 µM (inactive) | > 100 µM (inactive) | > 100 µM (inactive) | > 100 µM (inactive) | > 100 µM (inactive) | > 100 µM (inactive) | > 100 µM (inactive) | > 100 µM (inactive) | > 100 µM (inactive)
CCOC(=O)c1nc2ccccc2nc1Nc1ccc(OC)cc1 | > 100 µM (inactive) | 27.6 µM (inactive) | 54.7 µM (inactive) | 51.2 µM (inactive) | > 100 µM (inactive) | 35.1 µM (inactive) | > 100 µM (inactive) | 37.9 µM (inactive) | 49.5 µM (inactive) | > 100 µM (inactive) | > 100 µM (inactive) | 50.6 µM (inactive) | 19.5 µM (inactive) | 32.4 µM (inactive) | 93.8 µM (inactive) | > 100 µM (inactive) | 25.7 µM (inactive) | 83.8 µM (inactive) | 18.5 µM (inactive) | > 100 µM (inactive)
CC(=O)N1c2ccccc2C23CCN4CC5=CCOC(O)C(C5CC42)C13 (stereo not given) | > 100 µM (inactive) | > 100 µM (inactive) | > 100 µM (inactive) | > 100 µM (inactive) | 31.9 µM (inactive) | > 100 µM (inactive) | > 100 µM (inactive) | > 100 µM (inactive) | > 100 µM (inactive) | > 100 µM (inactive) | > 100 µM (inactive) | > 100 µM (inactive) | > 100 µM (inactive) | > 100 µM (inactive) | > 100 µM (inactive) | > 100 µM (inactive) | > 100 µM (inactive) | > 100 µM (inactive) | > 100 µM (inactive) | > 100 µM (inactive)
CCOC(=O)C(C(=S)SC)c1nn2c(=O)cc(C)nc2s1 (stereo not given) | 15.9 µM (inactive) | 20.3 µM (inactive) | 18.8 µM (inactive) | 19.5 µM (inactive) | 18.2 µM (inactive) | 16 µM (inactive) | 19.2 µM (inactive) | 20.7 µM (inactive) | 21 µM (inactive) | 17.1 µM (inactive) | 18.1 µM (inactive) | 19.6 µM (inactive) | 20.3 µM (inactive) | 20.2 µM (inactive) | 16.4 µM (inactive) | 24.6 µM (inactive) | 35.1 µM (inactive) | 20.8 µM (inactive) | 23.7 µM (inactive) | 26.2 µM (inactive)
CCc1ccccc1N1CCN(C(=O)c2cc(OC)c(OC)c(OC)c2)CC1 | 0.0307 µM (active) | < 0.0149 µM (active) | 0.251 µM (active) | 0.0452 µM (active) | 0.0235 µM (active) | 0.0316 µM (active) | 0.148 µM (active) | 0.0182 µM (active) | 0.0247 µM (active) | 0.0178 µM (active) | 0.0233 µM (active) | 0.0462 µM (active) | 0.0134 µM (active) | < 0.0137 µM (active) | 0.0232 µM (active) | 0.0219 µM (active) | 0.0248 µM (active) | 4.14 µM (inactive) | 1.15 µM (inactive) | 0.0231 µM (active)
CC(=O)OCC1OC(n2c(-c3ccccc3)c(C(C)=O)c(-c3ccc(Cl)cc3)c(C#N)c2=S)C(OC(C)=O)C(OC(C)=O)C1OC(C)=O (stereo not given) | > 100 µM (inactive) | > 100 µM (inactive) | > 100 µM (inactive) | > 100 µM (inactive) | > 100 µM (inactive) | > 100 µM (inactive) | > 100 µM (inactive) | 32.3 µM (inactive) | > 100 µM (inactive) | > 100 µM (inactive) | > 100 µM (inactive) | > 100 µM (inactive) | > 100 µM (inactive) | > 100 µM (inactive) | > 100 µM (inactive) | > 100 µM (inactive) | > 100 µM (inactive) | > 100 µM (inactive) | 83.8 µM (inactive) | > 100 µM (inactive)
O=C1C2=C(C(=O)c3c(O)ccc(O)c31)[C@@H](O)[C@@H](O)[C@@H](O)C2 | 2 µM (inactive) | 2.02 µM (inactive) | 2.26 µM (inactive) | 3.21 µM (inactive) | 2.77 µM (inactive) | 4.82 µM (inactive) | 2.94 µM (inactive) | 3.43 µM (inactive) | 0.957 µM (active) | 1.11 µM (active) | 0.635 µM (active) | 2.75 µM (inactive) | 7.24 µM (inactive) | 2.52 µM (inactive) | 1.14 µM (inactive) | 0.0741 µM (active) | 1.52 µM (inactive) | 7.96 µM (inactive) | 1.93 µM (inactive) | 4.46 µM (inactive)
CCOC(=O)c1ccc(NC(=O)O/N=C(/Cl)CCl)cc1 | 50.1 µM (inactive) | > 100 µM (inactive) | 17.6 µM (inactive) | 37.1 µM (inactive) | 25.2 µM (inactive) | 39.4 µM (inactive) | 33.6 µM (inactive) | 4.01 µM (inactive) | 44.6 µM (inactive) | 34.8 µM (inactive) | 24.2 µM (inactive) | > 100 µM (inactive) | 30.8 µM (inactive) | 12.6 µM (inactive) | 81.1 µM (inactive) | 39.6 µM (inactive) | 28.4 µM (inactive) | 86.7 µM (inactive) | 71.1 µM (inactive) | 15.4 µM (inactive)
CCOC(CCNCC(OCC)OCC)OCC | > 10 µM (inactive) | > 10 µM (inactive) | > 10 µM (inactive) | > 10 µM (inactive) | > 10 µM (inactive) | > 10 µM (inactive) | > 10 µM (inactive) | > 10 µM (inactive) | > 10 µM (inactive) | > 10 µM (inactive) | > 10 µM (inactive) | > 10 µM (inactive) | > 10 µM (inactive) | > 10 µM (inactive) | > 10 µM (inactive) | > 10 µM (inactive) | > 10 µM (inactive) | > 10 µM (inactive) | > 10 µM (inactive) | > 10 µM (inactive)
Cc1cc2c(cc1C)C(=O)c1ncccc1C2=O | 29.4 µM (inactive) | 28.5 µM (inactive) | 50.5 µM (inactive) | 22.7 µM (inactive) | 17.5 µM (inactive) | 35.7 µM (inactive) | 20.4 µM (inactive) | 54.5 µM (inactive) | 18.7 µM (inactive) | 20.2 µM (inactive) | 11.2 µM (inactive) | 31.2 µM (inactive) | 41.8 µM (inactive) | 37.2 µM (inactive) | 7.85 µM (inactive) | 18.3 µM (inactive) | > 100 µM (inactive) | 21.1 µM (inactive) | 21.9 µM (inactive) | 31.5 µM (inactive)
Cc1nc2ccc(S(=O)(=O)Nc3ccccc3Cl)cc2c(=O)n1NC(=O)CNc1ccccc1Cl | > 100 µM (inactive) | > 100 µM (inactive) | > 100 µM (inactive) | > 100 µM (inactive) | > 100 µM (inactive) | > 100 µM (inactive) | > 100 µM (inactive) | > 100 µM (inactive) | > 100 µM (inactive) | > 100 µM (inactive) | > 100 µM (inactive) | > 100 µM (inactive) | > 100 µM (inactive) | > 100 µM (inactive) | > 100 µM (inactive) | > 100 µM (inactive) | > 100 µM (inactive) | > 100 µM (inactive) | > 100 µM (inactive) | > 100 µM (inactive)
CC1CN=C(N(C(=O)Nc2ccccc2)c2ccccc2)S1 (stereo not given) | 18.8 µM (inactive) | 39.5 µM (inactive) | 13.9 µM (inactive) | 33.4 µM (inactive) | 43.9 µM (inactive) | 37.7 µM (inactive) | 19 µM (inactive) | 13.3 µM (inactive) | 17.1 µM (inactive) | 8.99 µM (inactive) | 20 µM (inactive) | 42.6 µM (inactive) | 37.9 µM (inactive) | 37.2 µM (inactive) | 23 µM (inactive) | 59.3 µM (inactive) | 20.6 µM (inactive) | 90.4 µM (inactive) | 19.5 µM (inactive) | 32.7 µM (inactive)

— ChEMBL document CHEMBL1201862, “PubChem BioAssay data set” (2004)
